Measured values published in ChEMBL document CHEMBL4507264, “Data for DCP probe BAY-7598” (2021).

Experiments:
[1] = tested on: Tyrosine-protein kinase ABL1 (Homo sapiens), P00519 [Q252H]; conditions: Compound concentration 1000.0 nM
[2] = target: Tyrosine-protein kinase ABL1 (Homo sapiens) (UniProt P00519); conditions: Compound concentration 1000.0 nM
[3] = target: Mitogen-activated protein kinase kinase kinase 5 (Homo sapiens) (UniProt Q99683); conditions: Compound concentration 1000.0 nM
[4] = target: Mitogen-activated protein kinase kinase kinase 6 (Homo sapiens) (UniProt O95382); conditions: Compound concentration 1000.0 nM
[5] = target: Serine/threonine-protein kinase B-raf (Homo sapiens) (UniProt P15056); conditions: Compound concentration 1000.0 nM
[6] = target: Protein-tyrosine kinase 6 (Homo sapiens) (UniProt Q13882); conditions: Compound concentration 1000.0 nM
[7] = target: Cyclin-dependent kinase 8 (Homo sapiens) (UniProt P49336); conditions: Compound concentration 1000.0 nM
[8] = target: Dual specificity protein kinase CLK2 (Homo sapiens) (UniProt P49760); conditions: Compound concentration 1000.0 nM
[9] = target: Dual specificity protein kinase CLK3 (Homo sapiens) (UniProt P49761); conditions: Compound concentration 1000.0 nM
[10] = target: Casein kinase I isoform alpha (Homo sapiens) (UniProt P48729); conditions: Compound concentration 1000.0 nM
[11] = target: Death-associated protein kinase 3 (Homo sapiens) (UniProt O43293); conditions: Compound concentration 1000.0 nM
[12] = target: Epithelial discoidin domain-containing receptor 1 (Homo sapiens) (UniProt Q08345); conditions: Compound concentration 1000.0 nM
[13] = target: Myotonin-protein kinase (Homo sapiens) (UniProt Q09013); conditions: Compound concentration 1000.0 nM
[14] = target: Ephrin type-B receptor 2 (Homo sapiens) (UniProt P29323); conditions: Compound concentration 1000.0 nM
[15] = target: Receptor tyrosine-protein kinase erbB-2 (Homo sapiens) (UniProt P04626); conditions: Compound concentration 1000.0 nM
[16] = target: Mitogen-activated protein kinase 1 (Homo sapiens) (UniProt P28482); conditions: Compound concentration 1000.0 nM
[17] = target: Mitogen-activated protein kinase 15 (Homo sapiens) (UniProt Q8TD08); conditions: Compound concentration 1000.0 nM
[18] = target: Fibroblast growth factor receptor 4 (Homo sapiens) (UniProt P22455); conditions: Compound concentration 1000.0 nM
[19] = target: Tyrosine-protein kinase Fgr (Homo sapiens) (UniProt P09769); conditions: Compound concentration 1000.0 nM
[20] = tested on: Receptor-type tyrosine-protein kinase FLT3 (Homo sapiens), P36888 [D835V]; conditions: Compound concentration 1000.0 nM
[21] = tested on: Receptor-type tyrosine-protein kinase FLT3 (Homo sapiens), P36888 [K663Q]; conditions: Compound concentration 1000.0 nM
[22] = target: Glycogen synthase kinase-3 alpha (Homo sapiens) (UniProt P49840); conditions: Compound concentration 1000.0 nM
[23] = target: Glycogen synthase kinase-3 beta (Homo sapiens) (UniProt P49841); conditions: Compound concentration 1000.0 nM
[24] = target: Inhibitor of nuclear factor kappa-B kinase subunit beta (Homo sapiens) (UniProt O14920); conditions: Compound concentration 1000.0 nM
[25] = tested on: Mast/stem cell growth factor receptor Kit (Homo sapiens), P10721 [D816H]; conditions: Compound concentration 1000.0 nM
[26] = target: Serine/threonine-protein kinase LATS1 (Homo sapiens) (UniProt O95835); conditions: Compound concentration 1000.0 nM
[27] = target: Dual specificity mitogen-activated protein kinase kinase 4 (Homo sapiens) (UniProt P45985); conditions: Compound concentration 1000.0 nM
[28] = target: MAP kinase-interacting serine/threonine-protein kinase 2 (Homo sapiens) (UniProt Q9HBH9); conditions: Compound concentration 1000.0 nM
[29] = target: Myosin-IIIa (Homo sapiens) (UniProt Q8NEV4); conditions: Compound concentration 1000.0 nM
[30] = target: Serine/threonine-protein kinase Nek10 (Homo sapiens) (UniProt Q6ZWH5); conditions: Compound concentration 1000.0 nM
[31] = target: Serine/threonine-protein kinase Nek3 (Homo sapiens) (UniProt P51956); conditions: Compound concentration 1000.0 nM
[32] = target: Mitogen-activated protein kinase kinase kinase 14 (Homo sapiens) (UniProt Q99558); conditions: Compound concentration 1000.0 nM
[33] = target: Serine/threonine-protein kinase PAK 6 (Homo sapiens) (UniProt Q9NQU5); conditions: Compound concentration 1000.0 nM
[34] = target: Calcium-dependent protein kinase 1 (Plasmodium falciparum) (UniProt P62344); conditions: Compound concentration 1000.0 nM
[35] = target: Cyclin-dependent kinase 15 (Homo sapiens) (UniProt Q96Q40); conditions: Compound concentration 1000.0 nM
[36] = target: Phosphatidylinositol 4,5-bisphosphate 3-kinase catalytic subunit beta isoform (Homo sapiens) (UniProt P42338); conditions: Compound concentration 1000.0 nM
[37] = target: Serine/threonine-protein kinase PknB (Mycobacterium tuberculosis) (UniProt P9WI81); conditions: Compound concentration 1000.0 nM
[38] = tested on: Proto-oncogene tyrosine-protein kinase receptor Ret (Homo sapiens), P07949 [V804M]; conditions: Compound concentration 1000.0 nM
[39] = target: Serine/threonine-protein kinase 36 (Homo sapiens) (UniProt Q9NRP7); conditions: Compound concentration 1000.0 nM
[40] = target: Serine/threonine-protein kinase TAO1 (Homo sapiens) (UniProt Q7L7X3); conditions: Compound concentration 1000.0 nM
[41] = target: Serine/threonine-protein kinase TAO2 (Homo sapiens) (UniProt Q9UL54); conditions: Compound concentration 1000.0 nM
[42] = target: Serine/threonine-protein kinase WNK4 (Homo sapiens) (UniProt Q96J92); conditions: Compound concentration 1000.0 nM
[43] = target: Serine/threonine-protein kinase 25 (Homo sapiens) (UniProt O00506); conditions: Compound concentration 1000.0 nM
[44] = target: Mitogen-activated protein kinase kinase kinase 20 (Homo sapiens) (UniProt Q9NYL2); conditions: Compound concentration 1000.0 nM
[45] = target: Histamine H2 receptor (Homo sapiens) (UniProt P25021); conditions: Compound concentration 10.0 uM

Chain of Dual specificity mitogen-activated protein kinase kinase 4 (Homo sapiens) (P45985 whole entry): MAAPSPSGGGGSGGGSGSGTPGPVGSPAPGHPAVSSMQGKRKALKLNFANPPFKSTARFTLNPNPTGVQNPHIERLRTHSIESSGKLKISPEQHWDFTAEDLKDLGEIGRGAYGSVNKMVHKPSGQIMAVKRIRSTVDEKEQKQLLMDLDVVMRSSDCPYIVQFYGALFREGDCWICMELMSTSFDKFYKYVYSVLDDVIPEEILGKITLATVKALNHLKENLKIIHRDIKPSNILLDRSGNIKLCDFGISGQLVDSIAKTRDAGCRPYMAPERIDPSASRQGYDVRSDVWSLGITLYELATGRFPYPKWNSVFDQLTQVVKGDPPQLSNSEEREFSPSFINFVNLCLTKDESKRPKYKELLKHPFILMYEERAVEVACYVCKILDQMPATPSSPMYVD
Chain of Dual specificity protein kinase CLK3 (Homo sapiens) (P49761 whole entry, looked up, canonical isoform): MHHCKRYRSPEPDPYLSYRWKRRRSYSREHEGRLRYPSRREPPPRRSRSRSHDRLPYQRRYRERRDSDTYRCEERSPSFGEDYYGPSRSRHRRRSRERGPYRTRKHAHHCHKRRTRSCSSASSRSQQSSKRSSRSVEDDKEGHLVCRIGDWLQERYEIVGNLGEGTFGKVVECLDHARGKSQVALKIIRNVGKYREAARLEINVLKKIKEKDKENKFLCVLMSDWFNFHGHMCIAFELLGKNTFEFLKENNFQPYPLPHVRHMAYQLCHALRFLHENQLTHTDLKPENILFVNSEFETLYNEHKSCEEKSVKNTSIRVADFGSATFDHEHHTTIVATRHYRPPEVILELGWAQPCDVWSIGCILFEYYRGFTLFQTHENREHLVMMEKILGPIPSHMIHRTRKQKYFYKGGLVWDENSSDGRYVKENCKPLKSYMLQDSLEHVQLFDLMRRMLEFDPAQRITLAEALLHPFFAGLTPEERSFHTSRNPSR
Chain of Serine/threonine-protein kinase Nek10 (Homo sapiens) (Q6ZWH5 whole entry): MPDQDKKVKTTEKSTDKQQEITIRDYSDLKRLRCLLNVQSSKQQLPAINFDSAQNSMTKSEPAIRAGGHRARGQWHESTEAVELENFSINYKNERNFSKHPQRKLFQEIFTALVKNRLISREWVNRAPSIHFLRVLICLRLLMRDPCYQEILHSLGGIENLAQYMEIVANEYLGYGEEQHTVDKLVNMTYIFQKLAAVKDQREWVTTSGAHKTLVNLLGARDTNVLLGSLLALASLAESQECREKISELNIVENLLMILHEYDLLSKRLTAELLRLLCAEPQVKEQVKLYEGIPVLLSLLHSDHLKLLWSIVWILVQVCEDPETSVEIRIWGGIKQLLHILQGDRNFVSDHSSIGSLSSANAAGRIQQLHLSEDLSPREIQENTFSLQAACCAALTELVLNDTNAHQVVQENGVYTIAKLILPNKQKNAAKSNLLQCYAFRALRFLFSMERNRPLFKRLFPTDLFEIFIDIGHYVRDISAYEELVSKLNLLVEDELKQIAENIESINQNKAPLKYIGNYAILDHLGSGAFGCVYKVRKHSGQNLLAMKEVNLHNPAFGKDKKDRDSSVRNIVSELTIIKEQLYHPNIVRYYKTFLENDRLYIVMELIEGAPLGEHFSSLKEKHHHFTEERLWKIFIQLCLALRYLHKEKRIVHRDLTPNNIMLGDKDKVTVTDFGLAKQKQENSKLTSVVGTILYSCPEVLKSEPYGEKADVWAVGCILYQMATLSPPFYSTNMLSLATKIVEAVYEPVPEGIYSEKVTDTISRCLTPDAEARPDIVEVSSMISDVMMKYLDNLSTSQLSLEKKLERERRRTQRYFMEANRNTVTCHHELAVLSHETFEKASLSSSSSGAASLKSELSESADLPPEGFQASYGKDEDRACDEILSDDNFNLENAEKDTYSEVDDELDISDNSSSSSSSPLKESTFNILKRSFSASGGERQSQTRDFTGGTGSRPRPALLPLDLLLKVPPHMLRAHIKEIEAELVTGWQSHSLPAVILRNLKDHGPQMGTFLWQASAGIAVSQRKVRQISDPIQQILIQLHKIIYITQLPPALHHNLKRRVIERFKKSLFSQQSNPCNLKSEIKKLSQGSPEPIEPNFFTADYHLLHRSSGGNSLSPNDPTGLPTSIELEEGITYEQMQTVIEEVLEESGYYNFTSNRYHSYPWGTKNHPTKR
Chain of Serine/threonine-protein kinase 36 (Homo sapiens) (Q9NRP7 whole entry): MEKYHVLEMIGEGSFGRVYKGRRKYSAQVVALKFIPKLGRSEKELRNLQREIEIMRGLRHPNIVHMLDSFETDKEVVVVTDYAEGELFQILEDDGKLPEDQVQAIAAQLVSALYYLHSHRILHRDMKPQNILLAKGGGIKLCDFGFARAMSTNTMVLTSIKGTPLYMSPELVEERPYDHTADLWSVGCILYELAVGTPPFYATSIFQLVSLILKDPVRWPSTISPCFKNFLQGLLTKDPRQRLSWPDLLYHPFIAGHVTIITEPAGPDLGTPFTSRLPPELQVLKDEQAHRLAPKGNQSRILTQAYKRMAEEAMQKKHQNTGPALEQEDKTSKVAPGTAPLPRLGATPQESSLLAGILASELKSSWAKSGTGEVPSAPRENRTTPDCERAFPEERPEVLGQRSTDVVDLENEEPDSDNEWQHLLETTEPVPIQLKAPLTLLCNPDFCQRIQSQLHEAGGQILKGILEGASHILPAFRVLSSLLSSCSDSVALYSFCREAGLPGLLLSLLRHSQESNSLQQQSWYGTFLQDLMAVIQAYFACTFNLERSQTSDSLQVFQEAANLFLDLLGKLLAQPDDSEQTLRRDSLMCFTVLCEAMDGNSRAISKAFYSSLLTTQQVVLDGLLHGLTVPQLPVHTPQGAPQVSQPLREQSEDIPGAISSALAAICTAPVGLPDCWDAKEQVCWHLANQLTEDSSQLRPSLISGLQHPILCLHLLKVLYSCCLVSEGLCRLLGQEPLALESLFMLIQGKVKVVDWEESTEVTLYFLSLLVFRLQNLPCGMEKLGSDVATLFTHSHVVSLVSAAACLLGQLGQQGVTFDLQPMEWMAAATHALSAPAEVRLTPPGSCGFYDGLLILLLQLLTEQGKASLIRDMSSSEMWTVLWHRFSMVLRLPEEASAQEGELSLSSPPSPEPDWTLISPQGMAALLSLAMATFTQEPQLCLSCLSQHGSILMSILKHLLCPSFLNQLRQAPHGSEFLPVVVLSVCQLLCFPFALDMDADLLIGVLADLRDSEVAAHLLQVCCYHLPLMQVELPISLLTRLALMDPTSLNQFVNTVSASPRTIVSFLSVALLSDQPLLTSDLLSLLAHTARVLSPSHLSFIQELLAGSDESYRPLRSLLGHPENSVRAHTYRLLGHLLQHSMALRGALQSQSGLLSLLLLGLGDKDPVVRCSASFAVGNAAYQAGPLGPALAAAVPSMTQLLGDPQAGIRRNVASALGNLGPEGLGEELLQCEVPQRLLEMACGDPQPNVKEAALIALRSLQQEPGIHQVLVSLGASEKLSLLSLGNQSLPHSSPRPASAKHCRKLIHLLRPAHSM
Chain of Serine/threonine-protein kinase B-raf (Homo sapiens) (P15056 whole entry): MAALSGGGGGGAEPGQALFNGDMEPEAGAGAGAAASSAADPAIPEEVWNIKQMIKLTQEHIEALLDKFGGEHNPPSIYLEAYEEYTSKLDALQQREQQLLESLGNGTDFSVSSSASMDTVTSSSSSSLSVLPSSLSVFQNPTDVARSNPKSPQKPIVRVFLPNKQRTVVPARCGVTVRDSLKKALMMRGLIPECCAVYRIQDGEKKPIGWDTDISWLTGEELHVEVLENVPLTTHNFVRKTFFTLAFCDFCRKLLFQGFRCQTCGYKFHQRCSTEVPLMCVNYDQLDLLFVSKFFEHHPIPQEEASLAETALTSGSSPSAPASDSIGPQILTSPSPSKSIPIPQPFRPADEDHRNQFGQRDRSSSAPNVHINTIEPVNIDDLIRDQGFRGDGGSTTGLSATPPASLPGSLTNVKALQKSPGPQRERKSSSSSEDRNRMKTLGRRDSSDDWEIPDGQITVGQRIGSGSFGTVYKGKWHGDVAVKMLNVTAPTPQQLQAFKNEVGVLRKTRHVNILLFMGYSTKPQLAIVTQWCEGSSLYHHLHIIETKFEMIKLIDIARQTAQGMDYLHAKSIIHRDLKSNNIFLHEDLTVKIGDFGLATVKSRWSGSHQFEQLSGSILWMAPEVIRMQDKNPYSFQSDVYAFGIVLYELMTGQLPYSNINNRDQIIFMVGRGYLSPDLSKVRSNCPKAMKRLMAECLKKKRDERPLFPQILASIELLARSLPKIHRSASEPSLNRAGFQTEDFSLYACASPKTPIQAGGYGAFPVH
Chain of Epithelial discoidin domain-containing receptor 1 (Homo sapiens) (Q08345 whole entry, the tested form may be a part): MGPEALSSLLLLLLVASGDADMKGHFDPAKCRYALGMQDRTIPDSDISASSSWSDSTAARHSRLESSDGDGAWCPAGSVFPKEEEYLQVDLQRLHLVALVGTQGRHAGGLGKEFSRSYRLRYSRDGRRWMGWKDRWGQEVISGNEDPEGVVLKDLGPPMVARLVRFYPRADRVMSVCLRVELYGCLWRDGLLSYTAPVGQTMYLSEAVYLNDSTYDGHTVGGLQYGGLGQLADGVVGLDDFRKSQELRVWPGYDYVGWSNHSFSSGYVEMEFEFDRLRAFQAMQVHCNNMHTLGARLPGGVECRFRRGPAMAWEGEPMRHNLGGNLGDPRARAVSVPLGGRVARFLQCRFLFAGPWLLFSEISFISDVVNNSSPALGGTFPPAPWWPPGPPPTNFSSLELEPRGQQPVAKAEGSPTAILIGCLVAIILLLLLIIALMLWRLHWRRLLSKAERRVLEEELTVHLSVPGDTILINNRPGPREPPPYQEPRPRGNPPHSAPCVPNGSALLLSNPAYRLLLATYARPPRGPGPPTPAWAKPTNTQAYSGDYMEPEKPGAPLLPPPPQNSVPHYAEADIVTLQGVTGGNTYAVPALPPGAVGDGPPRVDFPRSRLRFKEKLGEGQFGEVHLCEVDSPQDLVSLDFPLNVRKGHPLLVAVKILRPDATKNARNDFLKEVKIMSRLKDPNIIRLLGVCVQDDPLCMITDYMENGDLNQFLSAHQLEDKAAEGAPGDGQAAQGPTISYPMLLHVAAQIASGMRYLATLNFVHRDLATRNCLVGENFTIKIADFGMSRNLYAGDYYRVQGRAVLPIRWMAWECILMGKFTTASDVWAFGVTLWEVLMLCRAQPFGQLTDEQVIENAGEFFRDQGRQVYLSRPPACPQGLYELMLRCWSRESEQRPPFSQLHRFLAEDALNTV

O=C(O)[C@H]1[C@H](Cn2nnc3ccccc3c2=O)CC[C@@H]1C(=O)c1ccc(OCCC2CCOCC2)cc1 [BAY-7598]
inactive: residual activity [1] 98% | residual activity [2] 89% | residual activity [3] 95% | residual activity [4] 91% | residual activity [5] 100% | residual activity [6] 100% | residual activity [7] 100% | residual activity [8] 100% | residual activity [9] 100% | residual activity [10] 82% | residual activity [11] 99% | residual activity [12] 100% | residual activity [13] 83% | residual activity [14] 100% | residual activity [15] 100% | residual activity [16] 100% | residual activity [17] 100% | residual activity [18] 100% | residual activity [19] 86% | residual activity [20] 92% | residual activity [21] 100% | residual activity [22] 74% | residual activity [23] 100% | residual activity [24] 100% | residual activity [25] 80% | residual activity [26] 84% | residual activity [27] 97% | residual activity [28] 83% | residual activity [29] 100% | residual activity [30] 69% | residual activity [31] 86% | residual activity [32] 85% | residual activity [33] 100% | residual activity [34] 100% | residual activity [35] 100% | residual activity [36] 80% | residual activity [37] 77% | residual activity [38] 96% | residual activity [39] 100% | residual activity [40] 100% | residual activity [41] 100% | residual activity [42] 91% | residual activity [43] 90% | residual activity [44] 100% | inhibition [45] 12.6%

O=C(O)[C@@H]1[C@@H](Cn2nnc3ccccc3c2=O)CC[C@H]1C(=O)c1ccc(OCCC2CCOCC2)cc1 [BAY-694]
inactive: residual activity [1] 96% | residual activity [2] 79% | residual activity [3] 94% | residual activity [4] 79% | residual activity [5] 100% | residual activity [6] 99% | residual activity [7] 91% | residual activity [8] 100% | residual activity [9] 91% | residual activity [10] 97% | residual activity [11] 100% | residual activity [12] 100% | residual activity [13] 100% | residual activity [14] 100% | residual activity [15] 100% | residual activity [16] 93% | residual activity [17] 100% | residual activity [18] 99% | residual activity [19] 100% | residual activity [20] 93% | residual activity [21] 100% | residual activity [22] 93% | residual activity [23] 100% | residual activity [24] 100% | residual activity [25] 68% | residual activity [26] 90% | residual activity [27] 100% | residual activity [28] 99% | residual activity [29] 93% | residual activity [30] 88% | residual activity [31] 83% | residual activity [32] 100% | residual activity [33] 99% | residual activity [34] 100% | residual activity [35] 100% | residual activity [36] 66% | residual activity [37] 94% | residual activity [38] 100% | residual activity [39] 91% | residual activity [40] 100% | residual activity [41] 76% | residual activity [42] 75% | residual activity [43] 87% | residual activity [44] 91% | inhibition [45] 17.5%
